Data published in US9493448B2, “Cycloalkane derivatives” (Daiichi Sankyo Company, Limited, priority 2012, dated 2016).
Structures can show the parent of a compound that is named as a salt.

These compounds were tested against hNav 1.7 (Homo sapiens (Human), UniProt Q15858) (assay: Electrophysiological evaluation, automated patch clamp IonWorks Quattro (Population Patch Clamp mode)). Conditions: HEK293A cells stably expressing hNav 1.7/β1/β2; response to second depolarization pulse, pre-pulse potential set to V1/2; read-out: hNav1.7 IC50.
Chain of hNav 1.7 (Q15858 whole entry): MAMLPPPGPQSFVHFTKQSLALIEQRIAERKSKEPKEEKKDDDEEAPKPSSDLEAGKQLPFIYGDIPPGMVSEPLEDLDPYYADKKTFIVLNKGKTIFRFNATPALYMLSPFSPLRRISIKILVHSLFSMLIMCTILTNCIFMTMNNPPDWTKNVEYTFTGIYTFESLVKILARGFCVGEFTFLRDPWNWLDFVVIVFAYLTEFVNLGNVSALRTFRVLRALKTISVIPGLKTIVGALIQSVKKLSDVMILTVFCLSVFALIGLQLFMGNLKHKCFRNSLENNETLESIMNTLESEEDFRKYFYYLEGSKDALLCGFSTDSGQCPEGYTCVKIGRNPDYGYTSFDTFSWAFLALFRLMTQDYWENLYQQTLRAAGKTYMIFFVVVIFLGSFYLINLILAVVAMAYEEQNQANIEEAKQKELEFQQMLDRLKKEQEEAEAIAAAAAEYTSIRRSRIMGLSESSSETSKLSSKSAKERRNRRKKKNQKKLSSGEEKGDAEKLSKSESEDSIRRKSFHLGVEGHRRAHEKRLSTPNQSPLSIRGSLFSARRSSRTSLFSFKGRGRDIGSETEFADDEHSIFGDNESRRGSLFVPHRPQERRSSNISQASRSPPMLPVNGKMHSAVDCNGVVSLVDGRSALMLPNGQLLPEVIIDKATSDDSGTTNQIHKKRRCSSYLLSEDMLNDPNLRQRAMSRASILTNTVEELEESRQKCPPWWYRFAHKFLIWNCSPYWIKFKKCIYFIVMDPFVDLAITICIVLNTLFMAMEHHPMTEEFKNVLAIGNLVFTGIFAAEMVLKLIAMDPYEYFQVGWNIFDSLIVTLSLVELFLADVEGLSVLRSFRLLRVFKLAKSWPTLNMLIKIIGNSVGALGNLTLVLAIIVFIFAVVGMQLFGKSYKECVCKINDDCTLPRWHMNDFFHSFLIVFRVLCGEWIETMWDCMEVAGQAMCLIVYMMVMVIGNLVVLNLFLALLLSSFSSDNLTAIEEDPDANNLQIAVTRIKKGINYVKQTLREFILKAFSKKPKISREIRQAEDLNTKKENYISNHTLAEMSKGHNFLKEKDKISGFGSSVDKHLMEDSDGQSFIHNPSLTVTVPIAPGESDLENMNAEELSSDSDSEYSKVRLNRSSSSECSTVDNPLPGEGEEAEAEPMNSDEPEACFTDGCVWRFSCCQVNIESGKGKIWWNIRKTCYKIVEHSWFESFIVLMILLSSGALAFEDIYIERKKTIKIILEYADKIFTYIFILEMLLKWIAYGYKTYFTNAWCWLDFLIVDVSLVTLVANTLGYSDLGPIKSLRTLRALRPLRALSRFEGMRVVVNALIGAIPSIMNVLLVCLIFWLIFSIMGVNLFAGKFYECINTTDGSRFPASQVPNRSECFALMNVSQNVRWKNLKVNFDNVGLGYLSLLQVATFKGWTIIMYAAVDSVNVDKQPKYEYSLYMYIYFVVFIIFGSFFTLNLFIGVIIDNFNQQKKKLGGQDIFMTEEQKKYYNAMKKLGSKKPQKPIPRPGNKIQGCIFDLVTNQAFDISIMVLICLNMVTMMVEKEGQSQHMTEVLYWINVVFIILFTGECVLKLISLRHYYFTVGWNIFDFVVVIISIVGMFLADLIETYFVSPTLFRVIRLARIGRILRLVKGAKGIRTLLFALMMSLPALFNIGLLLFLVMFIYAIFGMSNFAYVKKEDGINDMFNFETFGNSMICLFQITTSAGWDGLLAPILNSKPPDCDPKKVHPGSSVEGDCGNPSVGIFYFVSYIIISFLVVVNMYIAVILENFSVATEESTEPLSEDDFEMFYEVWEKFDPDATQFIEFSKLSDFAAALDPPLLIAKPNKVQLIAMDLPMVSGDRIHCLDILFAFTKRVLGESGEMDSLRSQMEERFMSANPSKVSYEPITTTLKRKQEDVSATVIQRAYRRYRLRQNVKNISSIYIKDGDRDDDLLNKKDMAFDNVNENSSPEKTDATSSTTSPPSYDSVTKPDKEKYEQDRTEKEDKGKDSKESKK
Chain of hNav 1.7 (Q07699 19-218 partner): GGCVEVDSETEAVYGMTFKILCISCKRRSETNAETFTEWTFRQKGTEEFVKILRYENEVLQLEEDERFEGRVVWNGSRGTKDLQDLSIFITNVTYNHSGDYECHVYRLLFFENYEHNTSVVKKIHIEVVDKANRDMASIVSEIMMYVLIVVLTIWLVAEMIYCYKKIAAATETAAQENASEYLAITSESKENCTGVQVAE
Chain of hNav 1.7 (O60939 30-215 partner): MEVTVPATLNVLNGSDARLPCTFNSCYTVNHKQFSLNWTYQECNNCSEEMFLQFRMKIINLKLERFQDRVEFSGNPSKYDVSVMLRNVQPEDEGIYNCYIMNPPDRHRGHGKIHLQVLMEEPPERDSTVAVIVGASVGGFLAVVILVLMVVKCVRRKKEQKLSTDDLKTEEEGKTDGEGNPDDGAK
Assay type: cell-based

SMILES	IC50
O=S(=O)(Nc1ccncn1)c1c(F)cc(O[C@@H]2CCCC[C@H]2c2cn[nH]c2)cc1F [Example 169, 2,6-Difluoro-4-{[(1R,2S)-2-(1H-pyrazol-4-yl)cyclohexyl]oxy}-N-(pyrimidin-4-yl)benzenesulfonamide]	> 10 µM
O=S(=O)(Nc1ccncn1)c1cc(F)c(O[C@H]2CCCC[C@@H]2c2cccnc2)cc1F (relative stereo) [Example 39, 2,5-Difluoro-4-{[(1S*,2R*)-2-(pyridin-3-yl)cyclohexyl]oxy}-N-(pyrimidin-4-yl)benzenesulfonamide]	1 µM
Cn1nncc1[C@H]1CCCC[C@@H]1Oc1cc(F)c(S(=O)(=O)Nc2ccncn2)cc1F (relative stereo) [Example 92, 2,5-Difluoro-4-{[(1S*,2R*)-2-(1-methyl-1H-1,2,3-triazol-5-yl)cyclohexyl]oxy}-N-(pyrimidin-4-yl)benzenesulfonamide]	1 µM
Cn1cncc1[C@H]1CCCC[C@@H]1Oc1cc(F)c(S(=O)(=O)Nc2ccncn2)cc1F (relative stereo) [Example 49, 2,5-Difluoro-4-{[(1S*,2R*)-2-(1-methyl-1H-imidazol-5-yl)cyclohexyl]oxy}-N-(pyrimidin-4-yl)benzenesulfonamide]	0.66 µM
O=S(=O)(Nc1ccncn1)c1cc(Cl)c(O[C@@H]2CCCC[C@H]2c2ccn[nH]2)cc1F [Example 159, 5-Chloro-2-fluoro-4-{[(1R,2S)-2-(1H-pyrazol-5-yl)cyclohexyl]oxy}-N-(pyrimidin-4-yl)benzenesulfonamide]	9.8 µM
Cc1cc(S(=O)(=O)Nc2ccncn2)c(F)cc1O[C@@H]1CCC[C@H]1c1ccn[nH]1 [Example 149, 2-Fluoro-5-methyl-4-{[(1R,2S)-2-(1H-pyrazol-5-yl)cyclopentyl]oxy}-N-(pyrimidin-4-yl)benzenesulfonamide]	32 µM
Cn1nccc1[C@H]1CCC[C@@H]1Oc1cc(F)c(S(=O)(=O)Nc2cscn2)cc1Cl (relative stereo) [Example 11, 5-Chloro-2-fluoro-4-{[(1S*,2R*)-2-(1-methyl-1H-pyrazol-5-yl)cyclopentyl]oxy}-N-(1,3-thiazol-4-yl)benzenesulfonamide Na salt]	0.01 µM
O=S(=O)(Nc1ncns1)c1cc(F)c(O[C@@H]2CCCC[C@H]2c2ccccc2)cc1F [Example 75, 2,5-Difluoro-4-{[(1R,2S)-2-phenylcyclohexyl]oxy}-N-(1,2,4-thiadiazol-5-yl)benzenesulfonamide]	> 10 µM
Cc1cc(S(=O)(=O)Nc2ccncn2)c(F)cc1O[C@@H]1CCCC[C@H]1c1cn[nH]c1 [Example 170, 2-Fluoro-5-methyl-4-{[(1R,2S)-2-(1H-pyrazol-4-yl)cyclohexyl]oxy}-N-(pyrimidin-4-yl)benzenesulfonamide]	> 10 µM
O=S(=O)(Nc1ncns1)c1cc(F)c(O[C@H]2CCCC[C@@H]2c2ccccc2)cc1F (single isomer, unassigned) [Example 1, 2,5-Difluoro-4-{[(1S*,2R*)-2-phenylcyclohexyl]oxy}-N-(1,2,4-thiadiazol-5-yl)benzenesulfonamide]	0.12 µM
O=S(=O)(Nc1ccncn1)c1cc(Cl)c(O[C@@H]2CCC[C@H]2c2ccn[nH]2)cc1F [Example 151, 5-Chloro-2-fluoro-4-{[(1R,2S)-2-(1H-pyrazol-5-yl)cyclopentyl]oxy}-N-(pyrimidin-4-yl)benzenesulfonamide]	33 µM
Cc1cc(S(=O)(=O)Nc2ccncn2)c(F)cc1O[C@@H]1CC(F)(F)CC[C@H]1c1cn[nH]c1 [Example 144, 4-{[(1R,2S)-5,5-Difluoro-2-(1H-pyrazol-4-yl)cyclohexyl]oxy}-2-fluoro-5-methyl-N-(pyrimidin-4-yl)benzenesulfonamide]	3.4 µM
O=S(=O)(Nc1ncns1)c1cc(F)c(O[C@H]2CCCC[C@@H]2c2ccccc2)cc1F [Example 2, 2,5-Difluoro-4-{[(1S,2R)-2-phenylcyclohexyl]oxy}-N-(1,2,4-thiadiazol-5-yl)benzenesulfonamide]	0.02 µM

More lines, in order of falling IC50, values ahead:

IC50	SMILES
0.88 µM	Cn1nccc1[C@H]1CC(F)(F)CC[C@@H]1Oc1ccc(S(=O)(=O)Nc2ccncn2)c(F)c1 (relative stereo) [Example 130, 4-{[(1S*,2R*)-4,4-Difluoro-2-(1-methyl-1H-pyrazol-5-yl)cyclohexyl]oxy}-2-fluoro-N-(pyrimidin-4-yl)benzenesulfonamide]
0.82 µM	Cn1nccc1[C@H]1C[C@@H](O)CC[C@@H]1Oc1cc(F)c(S(=O)(=O)Nc2ccncn2)cc1Cl (relative stereo) [Example 162, 5-Chloro-2-fluoro-4-{[(1S*,2R*,4S*)-4-hydroxy-2-(1-methyl-1H-pyrazol-5-yl)cyclohexyl]oxy}-N-(pyrimidin-4-yl)benzenesulfonamide]
0.75 µM	Cn1nccc1[C@@H]1[C@@H](Oc2cc(F)c(S(=O)(=O)Nc3ccncn3)cc2F)CCCC1(F)F (relative stereo) [Example 117, 4-{[(1S*,2R*)-3,3-Difluoro-2-(1-methyl-1H-pyrazol-5-yl)cyclohexyl]oxy}-2,5-difluoro-N-(pyrimidin-4-yl)benzenesulfonamide]
0.61 µM	O=S(=O)(Nc1ncns1)c1cc(F)c(O[C@H]2CCC[C@@H]2c2ccccc2)cc1F (relative stereo) [Example 6, 2,5-Difluoro-4-{[(1S*,2R*)-2-phenylcyclopentyl]oxy}-N-(1,2,4-thiadiazol-5-yl)benzenesulfonamide]
0.56 µM	Cn1nccc1[C@H]1CC[C@@H](O)C[C@@H]1Oc1cc(F)c(S(=O)(=O)Nc2ccncn2)cc1Cl (relative stereo) [Example 160, 5-Chloro-2-fluoro-4-{[(1S*,2R*,5R*)-5-hydroxy-2-(1-methyl-1H-pyrazol-5-yl)cyclohexyl]oxy}-N-(pyrimidin-4-yl)benzenesulfonamide]
0.51 µM	Cn1nccc1[C@H]1CCC[C@@H]1Oc1cc(Cl)c(S(=O)(=O)Nc2ccncn2)cc1F (relative stereo) [Example 19, 2-Chloro-5-fluoro-4-{[(1S*,2R*)-2-(1-methyl-1H-pyrazol-5-yl)cyclopentyl]oxy}-N-(pyrimidin-4-yl)benzenesulfonamide]
0.51 µM	Cn1nccc1[C@H]1CCC[C@@H]1Oc1ccc(S(=O)(=O)Nc2cc(F)ncn2)cc1F (relative stereo) [Example 17, 3-Fluoro-N-(6-fluoropyrimidin-4-yl)-4-{[(1S*,2R*)-2-(1-methyl-1H-pyrazol-5-yl)cyclopentyl]oxy}benzenesulfonamide]
0.38 µM	Cn1nccc1[C@@H]1[C@@H](Oc2cc(F)c(S(=O)(=O)Nc3ccncn3)cc2F)CCC[C@H]1OCc1ccccc1 (relative stereo) [Example 100, 4-{[(1S*,2S*,3R*)-3-(Benzyloxy)-2-(1-methyl-1H-pyrazol-5-yl)cyclohexyl]oxy}-2,5-difluoro-N-(pyrimidin-4-yl)benzenesulfonamide]
0.33 µM	O=S(=O)(Nc1ccncn1)c1cc(F)c(O[C@H]2CCCC[C@@H]2c2ccnnc2)cc1F (relative stereo) [Example 53, 2,5-Difluoro-4-{[(1S*,2R*)-2-(pyridazin-4-yl)cyclohexyl]oxy}-N-(pyrimidin-4-yl)benzenesulfonamide]
0.25 µM	Nc1n[nH]cc1[C@H]1CCCC[C@@H]1Oc1cc(F)c(S(=O)(=O)Nc2ccncn2)cc1F (relative stereo) [Example 34, 4-{[(1S*,2R*)-2-(3-Amino-1H-pyrazol-4-yl)cyclohexyl]oxy}-2,5-difluoro-N-(pyrimidin-4-yl)benzenesulfonamide]
0.23 µM	Cn1nccc1[C@H]1CCC[C@@H]1Oc1ccc(S(=O)(=O)Nc2nccs2)cc1F (relative stereo) [Example 16, 3-Fluoro-4-{[(1S*,2R*)-2-(1-methyl-1H-pyrazol-5-yl)cyclopentyl]oxy}-N-(1,3-thiazol-2-yl)benzenesulfonamide]
0.19 µM	Cn1nccc1[C@H]1CC[C@H](O)C[C@@H]1Oc1cc(F)c(S(=O)(=O)Nc2ccncn2)cc1Cl (relative stereo) [Example 163, 5-Chloro-2-fluoro-4-{[(1S*,2R*,5S*)-5-hydroxy-2-(1-methyl-1H-pyrazol-5-yl)cyclohexyl]oxy}-N-(pyrimidin-4-yl)benzenesulfonamide]
0.12 µM	CCn1nccc1[C@H]1CCCC[C@@H]1Oc1cc(F)c(S(=O)(=O)Nc2cscn2)cc1Cl (relative stereo) [Example 12, 5-Chloro-4-{[(1S*,2R*)-2-(1-ethyl-1H-pyrazol-5-yl)cyclohexyl]oxy}-2-fluoro-N-(1,3-thiazol-4-yl)benzenesulfonamide]
0.082 µM	O=S(=O)(Nc1cscn1)c1cc(Cl)c(O[C@H]2CCCC[C@@H]2n2ccnc2)cc1F (relative stereo) [Example 13, 5-chloro-2-fluoro-4-{[(1S*,2S*)-2-(1H-imidazol-1-yl)cyclohexyl]oxy}-N-(1,3-thiazol-4-yl)benzenesulfonamide]
0.059 µM	CC(=O)O[C@@H]1CC[C@H](Oc2cc(F)c(S(=O)(=O)Nc3ccncn3)cc2Cl)[C@@H](c2ccnn2C)C1 [Example 166, (1R,3R,4S)-4-[2-Chloro-5-fluoro-4-(pyrimidin-4-ylsulfamoyl)phenoxy]-3-(1-methyl-1H-pyrazol-5-yl)cyclohexyl acetate]
0.034 µM	Cc1cc(S(=O)(=O)Nc2ccncn2)c(F)cc1O[C@H]1CCCC[C@@H]1c1cn[nH]c1 [Example 172, 2-Fluoro-5-methyl-4-{[(1S,2R)-2-(1H-pyrazol-4-yl)cyclohexyl]oxy}-N-(pyrimidin-4-yl)benzenesulfonamide]
0.014 µM	Cn1nccc1[C@H]1CCCCC[C@@H]1Oc1cc(F)c(S(=O)(=O)Nc2ncns2)cc1F (relative stereo) [Example 9, 2,5-Difluoro-4-{[(1S*,2R*)-2-(1-methyl-1H-pyrazol-5-yl)cycloheptyl]oxy}-N-(1,2,4-thiadiazol-5-yl)benzenesulfonamide]
0.0026 µM	CCc1cc(S(=O)(=O)Nc2ccncn2)c(F)cc1O[C@H]1CCC[C@@H]1c1ccnn1C (relative stereo) [Example 61, 5-Ethyl-2-fluoro-4-{[(1S*,2R*)-2-(1-methyl-1H-pyrazol-5-yl)cyclopentyl]oxy}-N-(pyrimidin-4-yl)benzenesulfonamide]
